Tested on: participants with SSc-RP
Experiment: Scleroderma Health Assessment Questionnaire (SHAQ): disability indices and visual analog scales
Type: in vivo, human
Excerpt: The standard, validated, patient reported outcome measures tool for SSc patients, the Scleroderma Health Assessment Questionnaire (SHAQ), will be used to assess the participant qualify of life. Details are attached in the Appendix. The participant quality of life will be scored, and a disability index calculated for each questionnaire completed by the patient at Screening and each in-clinic visit. The absolute change in participant quality of life from baseline to the end of each dosing period will be calculated similar to frequency data as before.
The SHAQ includes a Raynaud's VAS, which will be reported at screening and each in-clinic visit. The absolute change in Raynaud-VAS, assessed by the participants response to the SHAQ question ‘In the past 7 days, how much have your Raynaud's interfered with your daily activities?’ at baseline and the end of each dosing period will be calculated similar to frequency data as before.
The SHAQ is used to calculate a Disability Index to assess the participant qualify of life. The eight categories assessed by the Disability Index are 1) dressing and grooming, 2) arising, 3) eating, 4) walking, 5) hygiene, 6) reach, 7) grip, and 8) common daily activities. For each of these categories, patients report the amount of difficulty they have in performing two or three specific activities.
There are four possible responses for the Disability Index questions: • Without any difficulty=0 • With some difficulty=1 • With much difficulty=2 • Unable to do=3. • The highest score reported by the patient for any component question of the eight categories determines the score for that category. • If a component question is left blank or the response is too ambiguous to assign a score, then the score for that category is determined by the remaining completed question(s). • If all component questions are blank or if more than one answer is given, then follow up with the respondent is required. • If the respondent's mark is between the response columns, then move it to the closest one. If it's directly between the two, move it to the higher one.
Each of the disability items on the SHAQ has a companion aids/devices variable that is used to record what type(s) of assistance, if any, the participant uses for his/her usual activities. These variables (see below) are coded as follows: • 0=No assistance is needed. • 1=A special device is used by the patient in his/her usual activities. • 2=The patient usually needs help from another person. • 3=The patient usually needs BOTH a special device AND help from another person.
The scoring variables and scoring rules permit the computation of two disability indices, the Standard Disability Index and the Alternative Disability Index.
This question results in a new set of category scores that are computed by adjusting the score for each category, if necessary, based on the patient's use of an aid or device or assistance for that category. If either devices and/or help from another person are checked for a category, the score is set to “2”, unless the score is already “3” (i.e., scores of “0” or “1” are increased to “2”). For example, if the highest score for the dressing category is “1”, and the patient says they use a device for dressing, the computed category score would be “2”. The sum of the computed categories scores is then calculated and divided by the number of categories answered. This gives a score in the 0 to 3 range.
The aid and device variables are not used to calculate the alternative disability index; it is calculated by adding the scores for each of the categories and dividing by the number of categories answered. This gives a score in the 0 to 3 range.
The standard, validated, patient reported outcome measures tool for SSc patients, the SHAQ, was collected at the time points specified in the study schedules (FIG. 2 and FIGS. 4A and 4B) to assess the participant's quality of life. The SHAQ included a Raynaud's VAS that will also be reported separately.

[1] = Cilnidipine 10 mg, Day 12, PP Population Part A, SSc patients
[2] = Cilnidipine 10 mg, Day 12, PP Population, Part A
[3] = Cilnidipine 10 mg, PP Population Part A, SSc patients
[4] = Cilnidipine 20 mg (N = 3), Modified ITT, Part A
[5] = Cilnidipine 20 mg (N = 3), patients with diagnosis of SSc, sensitivity analysis, Modified ITT, Part A

COCCOC(=O)C1=C(C)NC(C)=C(C(=O)OC/C=C/c2ccccc2)C1c1cccc([N+](=O)[O-])c1 (stereo not shown) [Cilnidipine, cilnidipine]
SHAQ Visual Analogue Scale - Finger Ulcers, Change from Baseline, Mean [1]: −0.425
SHAQ Visual Analogue Scale - Finger Ulcers, Change from Baseline, Median [1]: −0.350
SHAQ Visual Analogue Scale - Finger Ulcers, Percent Change from Baseline, Mean [1]: −69.44%
SHAQ Visual Analogue Scale - Finger Ulcers, Percent Change from Baseline, Median [1]: −69.44%
SHAQ Visual Analogue Scale - Intestinal Problems, Change from Baseline, Mean [1]: −1.875
SHAQ Visual Analogue Scale - Intestinal Problems, Change from Baseline, Median [1]: −1.550
SHAQ Visual Analogue Scale - Intestinal Problems, Percent Change from Baseline, Mean [1]: −77.37%
SHAQ Visual Analogue Scale - Intestinal Problems, Percent Change from Baseline, Median [1]: −88.00%
SHAQ Visual Analogue Scale - Overall Disease Severity, Change from Baseline, Mean [1]: −0.900
SHAQ Visual Analogue Scale - Overall Disease Severity, Change from Baseline, Median [1]: −0.950
SHAQ Visual Analogue Scale - Overall Disease Severity, Percent Change from Baseline, Mean [1]: −56.96%
SHAQ Visual Analogue Scale - Overall Disease Severity, Percent Change from Baseline, Median [1]: −44.12%
SHAQ Visual Analogue Scale - Pain, Change from Baseline, Mean [1]: −0.100
SHAQ Visual Analogue Scale - Pain, Change from Baseline, Median [1]: 0.000
SHAQ Visual Analogue Scale - Pain, Percent Change from Baseline, Mean [1]: −9.88%
SHAQ Visual Analogue Scale - Pain, Percent Change from Baseline, Median [1]: 0.00%
SHAQ Visual Analogue Scale - Raynaud's, Change from Baseline, Mean [1]: 0.325
SHAQ Visual Analogue Scale - Raynaud's, Change from Baseline, Median [1]: 0.350
SHAQ Visual Analogue Scale - Raynaud's, Percent Change from Baseline, Mean [1]: 11.36%
SHAQ Visual Analogue Scale - Raynaud's, Percent Change from Baseline, Median [1]: −2.27%
SHAQ Alternative Disability Index: Change from Baseline, Mean [2]: 0.063
SHAQ Alternative Disability Index: Change from Baseline, Median [2]: 0.000
SHAQ Alternative Disability Index: In-Clinic Visit (Day 12), Mean [2]: 0.563
SHAQ Alternative Disability Index: In-Clinic Visit (Day 12), Median [2]: 0.500
SHAQ Alternative Disability Index: Percent Change from Baseline, Mean [2]: 15.87%
SHAQ Alternative Disability Index: Percent Change from Baseline, Median [2]: 15.87%
SHAQ Standard Disability Index: Change from Baseline, Mean [2]: 0.000
SHAQ Standard Disability Index: Change from Baseline, Median [2]: 0.000
SHAQ Standard Disability Index: In-Clinic Visit (Day 12), Mean [2]: 0.656
SHAQ Standard Disability Index: In-Clinic Visit (Day 12), Median [2]: 0.563
SHAQ Standard Disability Index: Percent Change from Baseline, Mean [2]: 0.00%
SHAQ Standard Disability Index: Percent Change from Baseline, Median [2]: 0.00%
SHAQ Visual Analogue Scale - Pain: Change from Baseline, Mean [2]: −0.100
SHAQ Visual Analogue Scale - Pain: Change from Baseline, Median [2]: 0.000
SHAQ Visual Analogue Scale - Pain: In-Clinic Visit (Day 12), Mean [2]: 1.875
SHAQ Visual Analogue Scale - Pain: In-Clinic Visit (Day 12), Median [2]: 1.950
SHAQ Visual Analogue Scale - Pain: Percent Change from Baseline, Mean [2]: −9.88%
SHAQ Visual Analogue Scale - Pain: Percent Change from Baseline, Median [2]: 0.00%
SHAQ Visual Analogue Scale - Breathing Problems, In-Clinic Visit (Day 12), Mean [3]: 1.575
SHAQ Visual Analogue Scale - Breathing Problems, In-Clinic Visit (Day 12), Median [3]: 0.000
SHAQ Visual Analogue Scale - Finger Ulcers, In-Clinic Visit (Day 12), Mean [3]: 0.275
SHAQ Visual Analogue Scale - Finger Ulcers, In-Clinic Visit (Day 12), Median [3]: 0.000
SHAQ Visual Analogue Scale - Intestinal Problems, In-Clinic Visit (Day 12), Mean [3]: 1.100
SHAQ Visual Analogue Scale - Intestinal Problems, In-Clinic Visit (Day 12), Median [3]: 0.300
SHAQ Visual Analogue Scale - Overall Disease Severity, In-Clinic Visit (Day 12), Mean [3]: 1.825
SHAQ Visual Analogue Scale - Overall Disease Severity, In-Clinic Visit (Day 12), Median [3]: 1.050
SHAQ Visual Analogue Scale - Pain, In-Clinic Visit (Day 12), Mean [3]: 1.875
SHAQ Visual Analogue Scale - Pain, In-Clinic Visit (Day 12), Median [3]: 1.950
SHAQ Visual Analogue Scale - Raynaud's, In-Clinic Visit (Day 12), Mean [3]: 1.925
SHAQ Visual Analogue Scale - Raynaud's, In-Clinic Visit (Day 12), Median [3]: 1.700
SHAQ Overall Severity: Baseline, Mean [4]: 2.667
SHAQ Overall Severity: Baseline, Median [4]: 2.900
SHAQ Overall Severity: Change from Baseline, Mean [4]: −1.633,
SHAQ Overall Severity: Change from Baseline, Median [4]: −1.600
SHAQ Overall Severity: Day 12, Mean [4]: 1.033
SHAQ Overall Severity: Day 12, Median [4]: 1.200
SHAQ Overall Severity: Percent Change from Baseline, Mean [4]: −62.64%
SHAQ Overall Severity: Percent Change from Baseline, Median [4]: −60.00%
SHAQ Standard Disability Index: Baseline, Mean [5]: 0.250
SHAQ Standard Disability Index: Baseline, Median [5]: 0.375
SHAQ Standard Disability Index: Change from Baseline, Mean [5]: −0.125
